Laboratory results: article PMC2639213 (Journal of medicinal chemistry, 2008)

Molecular target: APSR (Mycobacterium tuberculosis, UniProt P9WIK3)
Experiment: standard radioactive assay measuring APSR reduction of 35S-labeled APS substrate
Assay type: biochemical, M. tuberculosis
Conditions: for inhibition at 100 µM: read-out: inhibition of APSR activity, tested at 100 μM

Sequence of APSR (P9WIK3 whole entry): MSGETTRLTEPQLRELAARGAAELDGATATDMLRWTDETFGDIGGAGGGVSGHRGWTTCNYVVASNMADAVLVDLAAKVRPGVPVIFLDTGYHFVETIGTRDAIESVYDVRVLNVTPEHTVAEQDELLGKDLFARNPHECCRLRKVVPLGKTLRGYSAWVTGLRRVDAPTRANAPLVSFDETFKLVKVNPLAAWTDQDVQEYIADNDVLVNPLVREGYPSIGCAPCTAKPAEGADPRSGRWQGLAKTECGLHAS

| SMILES | activity against APSR (in words) | inhibition at 100 µM [%] |
| --- | --- | --- |
| O=C1c2ccccc2-c2ccc([N+](=O)[O-])cc21 [2-nitro-9-fluorenone] | neither 9-fluorenone nor 2-nitro-9-fluorenone, which are closely related to 133896, exhibited significant activity |  |
| O=C1c2ccccc2-c2ccccc21 [9-fluorenone] | neither 9-fluorenone nor 2-nitro-9-fluorenone, which are closely related to 133896, exhibited significant activity |  |
| O=C1c2ccccc2-c2cc([N+](=O)[O-])c([N+](=O)[O-])cc21 [NSC 133896] |  | > 50 |
| O=C(O)CCc1nnc2c3ccccc3c3ccccc3c2n1 [NSC 327704] |  | > 50 |
